According to US20260274794A1, “COMPOUNDS, COMPOSITIONS, AND METHOD OF INHIBITING TAU PROTEIN AND ALPHASYNUCLEIN AGGREGATION” (Purdue Research Foundation, priority 2023, published 2026):

Assays:
Assay type in all cases: biochemical
α-syn = α-syn (Homo sapiens, UniProt P37840); assay: Western blot (anti-oligo A11, anti-α-syn) of uncross-linked α-syn; conditions: compound 600 μM, α-syn 60 μM, 37° C., 24 hours
Procedure: To validate the PICUP results, the uncross linked α-syn (produced in Dr. Rochet lab) was incubated at a final concentration of 60 μM in 10 mM phosphate buffer (pH 7.4) with the presence of vehicle (1.5% DMSO), the amide compounds of interest (Compounds 2, 8, 17), and the weak anti-fibrillization inhibitor (compound 13). Compounds were tested at a final concentration of 600 μM (molar ratio 1:10). Samples were incubated for 24 h and 48 h with constant shaking 300 rpm at 37° C. (VWR Thermal Shake Touch, Troemner, LLC, Thorofare, NJ). After completion of the incubation time, samples were mixed with one third volume of above-mentioned loading buffer and separated by electrophoresis in a 16% SDS-Page gel. […] Nitrocellulose membranes were exposed to the monoclonal antibodies diluted at 1/1000 using a 5% non-fat dried milk with TBS and 0.1% Tween-20 (TBS-T) for 12 h at 4° C. Peroxidase conjugated secondary antibodies consisted of an anti-rabbit (Rockland Immunochemicals, inc., Pottstown, PA, cat. #611-1322-0100) and an anti-mouse (Rockland, cat. #610-1319-0100) utilized at a dilution of 1/5000 in 5% non-fat dried milk with TBS-T for one hour at room temperature. The membranes were then exposed to a 1:1 ratio of enhanced chemiluminescent solution (Thermo Scientific, Rockford, IL, cat. #32209) for one minute before the acquisition of images using a SynGene G;Box scanner (model Chemi XR 5 and the G:Box Chemi-XRQ GENESYS software.
One limitation of the PICUP is the generation of free radicals which can be quenched by aromatic compounds resulting in false positives. For this reason, results obtained by PICUP were validated using the uncross-linked α-syn. High concentration of different compounds (600 μM; molar ratio of 1:10) were incubated at 37° C. for 24 hours with 60 μM of α-syn and separated by electrophoresis in 16% SDS-PAGE gels. Western blots using polyclonal anti-oligo A11 and monoclonal anti-α-syn were assessed to detect the high molecular weight oligomers and monomeric α-syn, respectively.

α-synuclein (α-syn) [1] = target: T1, α-synuclein (α-syn) (Homo sapiens, UniProt P37840); assay: Thioflavin T (ThT) fluorescence assay of α-syn fibril formation; conditions: compound 100 μM; ThT fluorescence intensity at plateau phase, control = 100%
T1 construct: purchased rPeptide, LLC (Watkinsville, GA)
Procedure: ThT fluorescence is routinely established assay to follow the kinetics of α-syn fibril formation with different drug candidate treatments. Compounds were first tested at a final of concentration of 100 μM and α-syn and 2N4R tau were prepared at 2 μM and 6 μM, respectively. Compounds with highest anti-fibrillary activity were tested at 3.125, 6.25, 12.5, 25, 50, and 100 μM to obtain dose-response curves.
For the α-syn ThT assay, ThT was used at a final concentration of 20 μM. α-Syn was dissolved in 20 mM Tris-HCl (pH 7.4) supplemented with 100 mM NaCl to a stock solution of 280 μM (1 mg/250 μL) prior to resuspension in ThT buffer to obtain a final concentration of 2 μM. Compounds and ThT were first added to the wells. The kinetics of fibril formation begin when the α-syn was solubilized in the ThT buffer (10 mM PBS buffer (pH 7.4), supplemented with 0.5 mM SDS and 300 mM NaCl) and added to a non-treated black 96 well microplate with a transparent flat bottom. Each well was filled with a maximum volume of 150 μL buffer with one 3 mm borosilicate bead. The background fluorescence signal consisted of ThT in buffer and 0.25% DMSO without α-syn. The excitation and emission wavelengths were set at 440 and 485 nm, respectively, with a Synergy HT multi-mode microplate reader (BioTek, Winooski, VT). Measurements were taken at 37° C. every 20 minutes over 50 hours of shaking prior to reading the plate. Samples were measured in three replicates and the experiments were repeated three times using different α-syn stock solutions. For each time point, the background fluorescence signal was subtracted. Arbitrary units of fluorescence were calculated from the mean values normalized against the maximum value in each completed assay. Arbitrarily, the maximum value (100%) for the fluorescence intensity was established for α-syn.
Compounds were tested at 100 μM with α-syn at 6 μM, resulting in a molar ratio of approximately 1:16 (protein:compound). The plateau phase of sigmoidal kinetics is of particular interest because it is the phase in which mature fibrils form and where aggregation and disaggregation are at equilibrium with each other; therefore, the fluorescence intensity between multiple compounds at the plateau phase can be compared to identify the compounds with the most promising anti-aggregation activity (Table 1, column α-syn ThT %). […] Compound 17 was the best representative of the 5-aminoindole series and moved to the tier-2 assays, even though the resulting ThT percentage of fluorescence intensity was 10% higher than the cut off. These compounds were then tested on tau 2N4R ThT fluorescence assays.

α-synuclein (α-syn) [2] = target: T1, α-synuclein (α-syn); assay: as above; conditions: compound 3.125-100 μM, α-syn 2 μM, plateau phase

remaining activity at 100 µM (α-synuclein (α-syn) [1]) | SMILES | oligomeric species bands of uncross-linked α-syn (Western blot) (α-syn) | α-syn fibrillization, ThT dose-response (α-synuclein (α-syn) [2])
≤ 30% | O=C(Nc1cccc2[nH]ccc12)c1ccccc1 [Compound 2, N-(1H-indol-4-yl)benzamide] | narrow, less intense bands compared to control | reduction in protein fibrillization when subjected to higher concentrations
≤ 30% | O=C(Nc1cccc2[nH]ccc12)c1ccc(F)cc1 [Compound 8, 4-fluoro-N-(1H-indol-4-yl)benzamide] | narrow, less intense bands compared to control | reduction in protein fibrillization when subjected to higher concentrations
73.7 ± 5.6% | O=C(Nc1ccc2[nH]ccc2c1)c1ccccc1Cl [Compound 13, 2-chloro-N-(1H-indol-5-yl)benzamide] | did not reduce the intensity of the bands | 
